This is an account of results in ChEMBL document CHEMBL1134801, “Dibasic inhibitors of human mast cell tryptase. Part 3: identification of a series of potent and selective inhibitors containing the benzamidine functionality” (Bioorg Med Chem Lett, 2001).

A word on the Ki: it is a dissociation constant, usually derived from enzyme kinetics or from competition with a known ligand.

For one data set, the target named is Trypsin (Homo sapiens, UniProt P07477+P07478+P35030). The data set can be described thus: Inhibition of trypsin in human mast cells. It counts as cell-based.
Another data set addresses Tryptase (Homo sapiens, UniProt Q9BZJ3+Q15661+Q9NRR2). The data set is described as follows: Inhibition of Tryptase in human mast cells. The data set is classed as cell-based.
Another data set has as its target Plasminogen (Homo sapiens, UniProt P00747). The data set can be described thus: Inhibition plasmin in human mast cells. It counts as cell-based.
Another data set concerns the target Prothrombin (Homo sapiens, UniProt P00734). The data set is described as follows: Inhibition of thrombin in human mast cells. It counts as cell-based.
Data set [1] can be described thus: Michaelis-Menten constant was determined for the compound after incubation with plasma amine oxidase. The data set is classed as ADME, cell-free.

Plasminogen, sequence (P00747 97-580 limits assumed): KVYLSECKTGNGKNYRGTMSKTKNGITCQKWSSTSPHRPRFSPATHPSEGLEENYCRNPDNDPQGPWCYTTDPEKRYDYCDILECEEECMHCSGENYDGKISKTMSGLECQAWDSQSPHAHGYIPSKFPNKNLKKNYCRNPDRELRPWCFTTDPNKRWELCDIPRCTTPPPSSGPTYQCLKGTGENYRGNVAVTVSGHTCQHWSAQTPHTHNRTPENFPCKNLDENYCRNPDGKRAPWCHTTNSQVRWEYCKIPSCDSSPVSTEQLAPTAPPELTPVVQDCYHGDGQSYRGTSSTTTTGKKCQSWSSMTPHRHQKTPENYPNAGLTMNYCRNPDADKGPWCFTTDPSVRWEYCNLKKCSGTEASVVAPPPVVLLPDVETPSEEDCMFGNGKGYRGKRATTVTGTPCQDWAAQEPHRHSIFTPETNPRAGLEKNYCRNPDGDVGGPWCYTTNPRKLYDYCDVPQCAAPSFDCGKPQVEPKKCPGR
Plasminogen, sequence (P00747 581-810 limits assumed): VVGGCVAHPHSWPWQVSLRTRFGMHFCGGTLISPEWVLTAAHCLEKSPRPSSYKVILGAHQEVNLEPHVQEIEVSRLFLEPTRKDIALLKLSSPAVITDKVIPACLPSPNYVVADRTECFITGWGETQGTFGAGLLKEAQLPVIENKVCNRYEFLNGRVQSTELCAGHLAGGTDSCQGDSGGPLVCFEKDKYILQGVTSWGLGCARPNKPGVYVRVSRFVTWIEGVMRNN

As to `N=C(N)c1ccc(CNC(=O)N2CCN(C(=O)O[C@H]3CCC[C@@H](OC(=O)N4CCN(C(=O)NCc5ccc(C(=N)N)cc5)CC4)CCC3)CC2)cc1`, the Ki at Trypsin was 25 µM; at Tryptase, 0.0087 µM.
Take `N=C(N)c1ccc(C(=O)NCC2CCN(C(=O)O[C@H]3CCC[C@@H](OC(=O)N4CCN(C(=O)NCCC5CCNCC5)CC4)CCC3)CC2)cc1`: the Ki on Plasminogen came to 279 µM; on Prothrombin, 41.2 µM; at Trypsin, 38.8 µM; on Tryptase it was 0.016 µM.
On to `N=C(N)c1ccc(NC(=O)CC2CCN(C(=O)O[C@H]3CCC[C@@H](OC(=O)N4CCN(C(=O)NCCC5CCNCC5)CC4)CCC3)CC2)cc1`, for which the Ki at Plasminogen was 293 µM; at Prothrombin it was 52.9 µM; at Trypsin, 21.1 µM; at Tryptase it was 0.0089 µM.
For `NCC1CCN(C(=O)NCCCCNC(=O)OCc2ccc(COC(=O)NCCCCNC(=O)N3CCC(CN)CC3)cc2)CC1`, the Ki was > 1000 µM at Plasminogen, > 1000 µM at Prothrombin, > 1000 µM on Trypsin and 0.112 µM at Tryptase.
Consider `N=C(N)c1ccc(S(=O)(=O)NCC2CCN(C(=O)O[C@H]3CCC[C@@H](OC(=O)N4CCN(C(=O)NCCC5CCNCC5)CC4)CCC3)CC2)cc1`, for which the Ki at Plasminogen is > 1000 µM; on Prothrombin, > 1000 µM; at Trypsin, 16.8 µM; at Tryptase, 0.028 µM.
`NCC1CCN(C(=O)NCC2CCN(C(=O)OCc3ccc(COC(=O)N4CCC(CNC(=O)N5CCC(CN)CC5)CC4)cc3)CC2)CC1`: the “Vmax / Km” value in data set [1] was 1870. The Ki was > 1000 µM at Plasminogen, > 1000 µM at Prothrombin, 515 µM on Trypsin and 0.024 µM on Tryptase.
Regarding `COC(=O)NC(=N)c1ccc(CNC(=O)N2CCN(C(=O)O[C@H]3CCC[C@@H](OC(=O)N4CCN(C(=O)NCCC5CCNCC5)CC4)CCC3)CC2)cc1`, the inhibition constant Ki on Plasminogen was > 1000 µM; at Prothrombin, 561 µM; at Trypsin, 554 µM; at Tryptase, 0.0406 µM.
Regarding `N=C(N)c1ccc(C(=O)NCC2CCN(C(=O)O[C@H]3CCC[C@@H](OC(=O)N4CCC(CNC(=O)c5ccc(C(=N)N)cc5)CC4)CCC3)CC2)cc1`, the Ki on Plasminogen was 62.2 µM; on Prothrombin, 20.8 µM; on Trypsin it was 4.67 µM; on Tryptase, 0.00085 µM.
For `N=C(N)N1CCC(CNC(=O)CNC(=O)OCc2ccc(COC(=O)NCC(=O)NCC3CCN(C(=N)N)CC3)cc2)CC1`, in that order: > 1000 µM, 386 µM, 466 µM and 0.155 µM.
With `N=C(N)c1ccc(C(=O)NCC2CCN(C(=O)OCc3ccc(COC(=O)N4CCC(CNC(=O)c5ccc(C(=N)N)cc5)CC4)cc3)CC2)cc1`, the Ki at Plasminogen is 0.006 µM; at Prothrombin it was 42.2 µM; on Trypsin, 4.4 µM.
Regarding `N=C(N)c1ccc(C(=O)NCC2CCN(C(=O)O[C@H]3CCC[C@@H](OC(=O)N4CCN(C(=O)CCCC5CCNCC5)CC4)CCC3)CC2)cc1`, the Ki at Plasminogen worked out at 320 µM; on Prothrombin, 31.9 µM; on Trypsin it was 37.4 µM; on Tryptase it was 0.0164 µM.
Turning to `N=C(N)N1CCC(CCNC(=O)CNC(=O)OCc2ccc(COC(=O)NCC(=O)NCCC3CCN(C(=N)N)CC3)cc2)CC1`, the Ki is > 1000 µM at Plasminogen, 423 µM on Prothrombin, > 1000 µM at Trypsin and 0.11 µM at Tryptase.
As to `N=C(N)c1ccc(CNC(=O)N2CCN(C(=O)O[C@H]3CCC[C@@H](OC(=O)N4CCN(C(=O)NCCC5CCNCC5)CC4)CCC3)CC2)cc1`, the Ki on Plasminogen turned out to be 287 µM; at Prothrombin it was 111 µM; at Trypsin it was 47.2 µM; on Tryptase it was 0.00091 µM.
With `N=C(N)c1ccc(CNC(=O)N2CCN(C(=O)O[C@H]3CCC[C@@H](OC(=O)N4CCN(C(=O)CCCC5CCNCC5)CC4)CCC3)CC2)cc1`, the Ki is 310 µM on Plasminogen, 102 µM at Prothrombin, 52.1 µM on Trypsin and 0.00112 µM at Tryptase.
In the case of `N=C(N)c1ccc(CC(=O)N2CCN(C(=O)O[C@H]3CCC[C@@H](OC(=O)N4CCN(C(=O)NCCC5CCNCC5)CC4)CCC3)CC2)cc1`, the Ki on Plasminogen was > 1000 µM; on Prothrombin, 94.4 µM; on Trypsin it was 63.1 µM; at Tryptase, 0.0067 µM.
